The assay deals with Leukotriene B4 receptor 1 (Homo sapiens, UniProt Q15722). Briefly: BLT-1 cAMP Assay: The ability of compounds to antagonize the human BLT1 receptor was determined using a kit to measure changes in intracellular cyclic AMP levels (cAMP dynamic assay kit, Cisbio Cat. No. 62AM4PEC). HEK293 cells recombinantly expressing human BLT1 receptor, previously frozen in Recovery Medium (Life Technologies, Cat. No. 12648-010) were thawed and diluted into assay medium (HBSS (Hyclone SH 30268.01), 20 mM HEPES (Gibco 15630-106), 800 μM IBMX (Sigma I5879), 0.1% DTPA BSA (Perkin Elmer CR84-100)). The cell suspension was centrifuged at 200×g for 10 min and then resuspended in fresh assay medium to a density of 2.5×10^5 cells/mL. A Labcyte Echo 550 acoustic dispenser was used to transfer 25 nL of test compound dissolved in DMSO into the wells of a dry 384-well plate (Greiner 784075). All subsequent liquid additions were performed using a BIORAPTR (FRD; Beckman Coulter). Next, 5 μL of cell suspension was added and incubated for 20 min. at 37° C. and 5% CO2 in a humidified plastic tray. To test for agonist activity […] of assay buffer containing forskolin (Sigma F-6886. 4 μM for BLT1) was added and incubated for 30 minutes at 37° C. and 5% CO2 in a humidified plastic tray. To test for antagonist activity 5 μL of assay buffer containing forskolin (Sigma F-6886. 4 μM for BLT1) and either LTB4 (Sigma Aldrich L0517; 2 nM BLT1) was added and incubated for 30 minutes at 37° C. and 5% CO2 in a humidified plastic tray.The levels of cAMP were detected using the CisBio kit following the manufacturer's instructions: cAMP-d2 vial was reconstituted with distilled water and then diluted accordingly with conjugate & lysis buffer. 5 μL of cAMP-d2 working solution was added to all of the wells of the assay plate. cAMP-Cryptate vial was reconstituted with distilled water and then diluted accordingly with conjugate & lysis buffer. 5 μL of cAMP-Cryptate working solution were added to the assay plate. […]. In kind it is cell-based.
Leukotriene B4 receptor 1, sequence (Q15722 whole entry): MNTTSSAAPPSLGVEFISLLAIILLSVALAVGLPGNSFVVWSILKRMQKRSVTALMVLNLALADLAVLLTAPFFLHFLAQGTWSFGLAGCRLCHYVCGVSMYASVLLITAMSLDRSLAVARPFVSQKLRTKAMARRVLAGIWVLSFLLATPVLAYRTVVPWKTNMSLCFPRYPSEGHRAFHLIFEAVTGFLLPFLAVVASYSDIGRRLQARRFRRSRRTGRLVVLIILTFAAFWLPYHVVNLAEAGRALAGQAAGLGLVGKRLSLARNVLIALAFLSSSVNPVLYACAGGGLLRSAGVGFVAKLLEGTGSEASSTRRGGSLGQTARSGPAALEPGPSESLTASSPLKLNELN
A word on the EC50: it is the midpoint of the concentration-response curve. Consider `CCn1nccc1C[C@@H]1COc2cc(-c3ccccc3C(=O)NS(=O)(=O)C3(C)CC3)ccc2[C@H]1O` (racemic), for which the EC50 was 538 nM.

For the molecule `O=C(NS(=O)(=O)C(F)(F)F)c1ccc(F)cc1-c1ccc2c(c1)OC[C@H](Cc1ccc(-c3ccccc3)cc1)[C@H]2O` (single isomer, unassigned), the EC50 amounted to 35 nM.

Turning to `CC1(S(=O)(=O)NC(=O)c2ccccc2-c2ccc3c(c2)OC[C@@H](Cc2coc(-c4ccccc4)n2)[C@@H]3O)CC1` (single isomer, unassigned), the EC50 stood at 60 nM.

The values above are taken from ChEMBL document CHEMBL5727202, “Aryl acylsulfonamides as BLT1 antagonists” (2019).
